≈ marks a conversion by molar mass, not a printed value. Read-outs that look alike come from different tables or passages of the source.
Key:
MDR AB BAA 1605 [1] = assay: Broth microdilution antimicrobial susceptibility assay, MDR isolate; settings: Acinetobacter baumannii, BAA1605, read-out: MIC, MDR AB BAA 1605
MDR AB BAA 1605 [2] = tested on: MDR AB BAA 1605; design: method as in PMID 40014581; settings: quinoline lead of the earlier series, Figure 1; cited from earlier work
HEK 293 cells = assay: XTT cell viability cytotoxicity assay; settings: n = 3, 24 h treatment
AB ATCC 17978 [3] = assay: Checkerboard assay with colistin sulfate, ATCC 17978; settings: for MIC: Acinetobacter baumannii, ATCC17978, read-out: MIC alone, AB ATCC 17978; for fold change of MIC, AB ATCC 17978: alone vs +colistin; for fractional inhibitory concentration index (FICI) / interaction with colistin, AB ATCC 17978: synergistic FICI ≤ 0.5, additivity FICI 0.5 < x < 1
Description: (§1) Synthesized compounds in DMSO (2–128 μg/mL, row G-A) were combined with colistin sulfate in ultra purified water (0.125–32 μg/mL, column 2–10) in a 96-well microtiter plate checkerboard assay against ATCC 17978 and BAA-1605 (MDR). Briefly, liquid cultures of bacteria were grown for 14–16 h by inoculating a single bacterial culture into 10 mL TSB. To each well 88 μL of TSB, 10 μL of bacteria culture, and 1 from each master plate was added (see layout below). Plates were covered and incubated at 37 °C for 12–18 h.

AB ATCC 17978 [4] = assay: Broth microdilution antimicrobial susceptibility assay, susceptible isolate; settings: Acinetobacter baumannii, ATCC17978, read-out: MIC, AB ATCC 17978
AB BAA 1605 = assay: Checkerboard assay with colistin sulfate, BAA 1605; settings: for MIC: Acinetobacter baumannii, BAA1605, read-out: MIC alone, AB BAA 1605; for fold change of MIC, AB BAA 1605: alone vs +colistin; for fractional inhibitory concentration index (FICI) / interaction with colistin, MDR AB BAA 1605: synergistic FICI ≤ 0.5, additivity FICI 0.5 < x < 1
Description: as §1

[5] = target: T1, A. baumannii ATP synthase (Acinetobacter baumannii, UniProt A3M139); design: method as in PMID 40014581; settings: quinoline lead of the earlier series, comparison; read-out: IC50, AB ATP synthase (converted); cited from earlier work
T1 construct: endogenous electron transport chains of inverted inner membrane vesicles were energized with NADH; endogenous in cells; host or cells: inverted inner membrane vesicles prepared from A. baumannii ATCC 17978 cells
T1 sequence (A3M139 whole entry): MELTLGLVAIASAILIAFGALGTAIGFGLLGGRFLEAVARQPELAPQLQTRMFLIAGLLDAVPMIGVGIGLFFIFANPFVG

[6] = target: T1, A. baumannii ATP synthase; assay: AB ATP synthase inhibition: NADH-driven ATP synthesis in inverted inner membrane vesicles, luciferin/luciferase readout; format: biochemical; settings: for Hill coefficient (Hill slope): fit of ATP synthesis dose response curve
Description: Once synthesized, the pyridine compounds were tested for their ability to inhibit ATP synthase activity using our previously reported luciferin/luciferase assay. Briefly, endogenous electron transport chains of inverted inner membrane vesicles were energized with NADH to generate a proton gradient and to drive ATP synthesis. ATP was measured via luminescence from the luciferase-catalyzed oxidation of D-luciferin. Luminescence activities across increasing inhibitor concentrations were corrected for gradient independent background sources of ATP by comparison with a control containing the protonophore CCCP (carbonyl cyanide 3-chlorophenylhydrazone). The data were then fit to a four-parameter logistic dose–response curve, from which IC50 values and Hill coefficients were determined using a nonlinear least-squares regression.
A. baumannii (ATCC 17978) cells were grown in LB medium at 37 °C with shaking at 150 rpm and harvested by centrifugation in the late exponential phase of growth. Cells were resuspended in TMG buffer (50 mM Tris-HCl, pH 7.5, 5 mM MgCl2, 10% v/v glycerol) with 1 mM phenylmethanesulfonyl fluoride, 1 mM dithiothreitol, and a small amount of DNase and lysed by two passes through an Avestin B15 homogenizer at 19,000 psi. Lysate was cleared by centrifugation at 9000g and inverted membrane vesicles were collected from the supernatant by centrifugation at 169,000g. To reduce background ATP synthesis activity in AB vesicles, it was important to wash the membranes by resuspending in TMG buffer and centrifuging again at 169,000g. Washed pellets were resuspended in TMG buffer, and aliquots were stored at −80 °C. Once thawed, aliquots were not refrozen. Protein concentration in membrane vesicles was determined using a modified Lowry assay.
In vitro ATP synthesis activity of inverted inner membrane vesicles was measured as previously described. A reaction solution was prepared containing 5 mM tricine-KOH, pH 8.0, 50 mM KCl, 2.5 mM MgCl2, 0.1 mM adenosine diphosphate, 3.75 mM potassium phosphate, and 2.5 mM NADH and distributed into a 96-well plate. NADH-driven ATP synthesis was initiated by addition of inverted vesicles to 50 μg/mL and allowed to proceed for 10 min. The reaction was stopped by transferring an aliquot into 1% trichloroacetic acid. The stopped reaction was diluted 100-fold with deionized water and a sample was transferred to luciferase solution containing 25 mM tricine-NaOH, pH 7.8, 5 mM MgSO4, 0.1 mM EDTA, 0.1 mM NaN3, 150 μg/mL luciferin, and 7.5 μg/mL luciferase. Luminescence was measured in an opaque white 96-well plate using a BioTek H1 multimode plate reader. Each replicate set included a positive control containing DMSO with no compound and a negative control containing carbonyl cyanide 3-chlorophenylhydrazone (CCCP). Luminescence values were corrected for background by subtracting the CCCP control and normalized to the luminescence of the DMSO control. Normalized activity was fit using a variable-slope dose response curve. Nonlinear regression, including prediction of 95% confidence bands, and pairwise comparisons of fits using the F-test method were completed using GraphPad Prism10. Relativeactivity=1/1+(c/IC50)^Hillslope […]
Figure S1. ATP synthesis inhibition by all pyridine compounds in order of WSA compound number. ATP synthesis activities in inverted inner membrane vesicles prepared from AB cells were measured in the presence of 0.0625-64 µg/mL, corrected for background ATP, and normalized to activity with DMSO alone (see methods). For each plot, dots are normalized activities at each concentration (n≥3) on a log 2 scale, solid lines are fitted dose response curves, and dashed lines show the 95% confidence range of the fit. IC50

[7] = tested on: AB electron transport chain (ETC); assay: AB electron transport chain inhibition: NADH-driven H+ pumping, ACMA fluorescence quenching; format: biochemical, Acinetobacter baumannii; settings: at 2 μg/mL compound
Description: To ensure that the pyridine analogs were selectively inhibiting AB ATP synthase, each analog was also evaluated for inhibition of the AB electron transport chain (ETC) at 2 μg/mL using a standard protocol. − Briefly, respiratory dehydrogenase complexes were energized with NADH to initiate redox-driven H^+ pumping into the vesicle lumen, which was in turn detected by the quenching of 9-amino-6-chloro-2-methoxyacradine fluorescence. Most compounds were tested at concentrations of 2 μg/mL to establish whether ETC inhibition occurred in the same range as ATP synthase inhibition (Figure S2).
NADH-driven proton pumping activity in inverted membrane vesicles was measured as previously described. Briefly, vesicles were diluted to 0.5 mg/mL in HMK buffer (50 mM HEPES, 2 mM MgCl2, 300 mM KCl, pH 7.5) with 0.3 μg/mL 9-amino-6-chloro-2-methoxyacridine (ACMA) and distributed into wells of a black 96-well plate containing various concentrations of inhibitors dissolved in DMSO. ACMA fluorescence (λex = 415 nm, λem = 485 nm) was monitored using a BioTek H1 multimode plate reader. Proton pumping was initiated by addition of NADH to 0.8 mM and terminated by addition of nigericin to 0.5 μg/mL. Activity was defined as the percent quenching of fluorescence, where fluorescence values are normalized to the maximum fluorescence following the addition of nigericin.
Figure S2. Inhibition of the AB electron transport chain (ETC) by compounds at 2 µg/mL.
ETC H+-pumping activity in inverted inner membrane vesicles prepared from AB cells was determined by the quenching of ACMA dye upon initiation with NADH. Addition of nigericin returned fluorescence to baseline, and relative fluorescence quenching is defined as the minimum fluorescence over the maximum fluorescence after addition of nigericin. Relative ETC inhibition (bars) is the fraction of fluorescence quenching decreased by the presence of 2 µg/mL compound.
(1 picture or pasted object on this page, not shown here)

[8] = inverted inner membrane vesicles, 0.0625-64 µg/mL, n≥3, Table S1, read-out: AB ATP Synthase Inhibition IC50 (converted)
[9] = Figure 2, read-out: IC50, AB ATP synthase inhibition (converted)

Structure (SMILES)	MIC (MDR AB BAA 1605 [1]) [µg/mL]	MDR AB MIC (MDR AB BAA 1605 [2]) [µg/mL]	MIC, HEK 293 (cytotoxicity) (HEK 293 cells) [µg/mL]	MIC (AB ATCC 17978 [3]) [µg/mL]	fold change of MIC, AB ATCC 17978 (AB ATCC 17978 [3])	fractional inhibitory concentration index (FICI) / interaction with colistin, AB ATCC 17978 (AB ATCC 17978 [3])	MIC +colistin, AB ATCC 17978 (AB ATCC 17978 [3]; with 0.5 μg/mL colistin)	MIC (AB ATCC 17978 [4]) [µg/mL]	MIC (AB BAA 1605) [µg/mL]	fold change of MIC, AB BAA 1605 (AB BAA 1605)	fractional inhibitory concentration index (FICI) / interaction with colistin, MDR AB BAA 1605 (AB BAA 1605)	MIC +colistin, AB BAA 1605 (AB BAA 1605; with 0.25 μg/mL colistin)	IC50 [5] [nM]	Hill coefficient (Hill slope) [6]	IC50 [6, 8] [nM]	ETC inhibition [7] [%]	IC50 [6, 9] [nM]	MIC +colistin, AB BAA 1605 (AB BAA 1605; with 0.125 μg/mL colistin)	MIC +colistin, AB ATCC 17978 (AB ATCC 17978 [3]; with 0.25 μg/mL colistin)
CCN1CCC(CCNCc2cc3cc(-c4ccccc4)ccc3nc2SCc2ccccc2)CC1 [WSA 261, reference compound]	16 (≈ 32.3 µM)	16	8 (≈ 16.1 µM)	8	2	additivity	4 (0.5 μg/mL Col)	8 (≈ 16.1 µM)	16	2	additivity	8 (0.25 μg/mL Col)	1550	–	–	–	–	–	–
CN1CCN(CCNCc2cc(-c3ccc(F)cc3)cnc2SCc2ccccc2)CC1 [WSA 273]	128 (≈ 284 µM)	–	4 (≈ 8.88 µM)	–	–	–	–	32 (≈ 71 µM)	–	–	–	–	–	-0.8	1890	40	–	–	–
CN1CCN(CCNCc2cc(-c3ccc(F)cc3F)cnc2SCc2ccccc2)CC1 [WSA 274]	128 (≈ 273 µM)	–	4 (≈ 8.54 µM)	–	–	–	–	32 (≈ 68.3 µM)	–	–	–	–	–	-0.8	1710	40	–	–	–
COc1ccc(-c2cnc(SCc3ccccc3)c(CNCCN3CCN(C)CC3)c2)cc1F [WSA 275]	128 (≈ 266 µM)	–	4 (≈ 8.32 µM)	–	–	–	–	32 (≈ 66.6 µM)	–	–	–	–	–	-0.7	499	40	416	–	–
CN1CCN(CCNCc2cc(-c3ccc(N(C)C)cc3)cnc2SCc2ccccc2)CC1 [WSA 276]	32 (≈ 67.3 µM)	–	16 (≈ 33.6 µM)	16	2	–	8 (0.5 μg/mL Col)	16 (≈ 33.6 µM)	32	4	synergy	8 (0.25 μg/mL Col)	–	-0.6	–	–	673	–	–
Cc1ccc(-c2cnc(SCc3ccccc3)c(CNCCN3CCN(C)CC3)c2)cc1 [WSA 280]	32 (≈ 71.6 µM)	–	16 (≈ 35.8 µM)	16	2	–	8 (0.5 μg/mL Col)	16 (≈ 35.8 µM)	32	2	–	–	–	-0.8	–	–	1540	16 (0.125 μg/mL Col)	–
COc1ccc(-c2cnc(SCc3ccccc3)c(CNCCC3CCN(C4CCCC4)CC3)c2)cc1 [WSA 288]	32 (≈ 62 µM)	–	16 (≈ 31 µM)	16	4	≤ 0.5	–	16 (≈ 31 µM)	32	4	synergy	8 (0.25 μg/mL Col)	–	-0.9	–	–	485	–	–
Cc1ccc(-c2cnc(SCc3ccccc3)c(CNCCC3CCN(C4CCCC4)CC3)c2)cc1 [WSA 289]	32 (≈ 64 µM)	–	16 (≈ 32 µM)	16	4	≤ 0.5	–	16 (≈ 32 µM)	32	2	–	–	–	-0.7	–	–	480	16 (0.125 μg/mL Col)	–
Fc1ccc(-c2cnc(SCc3ccccc3)c(CNCc3ccc(CN4CCCC4)cc3)c2)cc1 [WSA 298]	32 (≈ 64.3 µM)	–	16 (≈ 32.1 µM)	16	2	–	–	16 (≈ 32.1 µM)	32	4	synergy	8 (0.25 μg/mL Col)	–	-0.8	–	–	1310	–	8 (0.25 μg/mL Col)
